Assay results from patent publication US11028072B2, “2,4-diamino-6-ethylpyrimidine derivatives with antimalarial activities against Plasmodium falciparum” (National Science and Technology Development Agency, priority 2015, dated 2021).
Read-outs that look alike come from different tables or passages of the source.

Key:
wild type (WT) pfDHFR = wild type (WT) pfDHFR (Plasmodium falciparum, UniProt P13922, N108S/R59C); assay: Inhibition of wild type pfDHFR (Ki); assay type: biochemical
Procedure: (§1) The synthesized 2,4-diamino-6-ethylpyrimdine derivatives as the hydrochloride salts were tested for the activities against Plasmodium falciparum (P. falciparum) according to the standard methods. These include the inhibition of dihydrofolate reductase (DHFR) enzymes of P. falciparum including, wild type (WT) and quadruple mutants (N51IC59RS108NI164L) (QM). The inhibition was expressed as inhibition constants (Ki) in nano molar (nM).

in vitro = conditions: African green monkey
Excerpt: (§2) In Vitro Antimalarial Activites Against P. falciparum and Cytotoxicity Towards Mammalian Cells (Vero Cells)

[1] = target: quadruple mutant N51I + C59R + S108N + I164L (QM) pfDHFR (Plasmodium falciparum, UniProt P13922, I164L/N51I); assay: Inhibition of quadruple mutant pfDHFR (Ki); assay type: biochemical
Procedure: as §1

[2] = target: T1, Human dihydrofolate reductase (hDHFR) (Homo sapiens, UniProt P00374); assay: Inhibition of human dihydrofolate reductase (Ki); assay type: biochemical; conditions: human DHFR; hydrochloride salts
T1 sequence (P00374 1-187): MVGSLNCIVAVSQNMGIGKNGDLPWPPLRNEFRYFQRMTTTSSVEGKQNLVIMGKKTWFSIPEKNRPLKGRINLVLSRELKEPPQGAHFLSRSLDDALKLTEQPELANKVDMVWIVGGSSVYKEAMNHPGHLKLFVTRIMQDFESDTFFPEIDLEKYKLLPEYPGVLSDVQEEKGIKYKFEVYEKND

[3] = system: P. falciparum V1/S (N51I + C59R + S108 + I164L); assay: microbe, parasite or virus in culture; assay type: cell-based, Plasmodium falciparum; conditions: Plasmodium falciparum, read-out: IC50 P. falciparum V1/S
Excerpt: as §2

[4] = system: P. falciparum TM4/8.2 (wild type); assay: microbe, parasite or virus in culture; assay type: cell-based, Plasmodium falciparum; conditions: Plasmodium falciparum, read-out: IC50 P. falciparum TM4/8.2 (WT)
Excerpt: as §2

[5] = in vitro, quadruple mutant strain V1/S
[6] = in vitro, wild-type strain TM4/8.2

Chain of quadruple mutant N51I + C59R + S108N + I164L (QM) pfDHFR (P13922 whole entry N51I/I164L): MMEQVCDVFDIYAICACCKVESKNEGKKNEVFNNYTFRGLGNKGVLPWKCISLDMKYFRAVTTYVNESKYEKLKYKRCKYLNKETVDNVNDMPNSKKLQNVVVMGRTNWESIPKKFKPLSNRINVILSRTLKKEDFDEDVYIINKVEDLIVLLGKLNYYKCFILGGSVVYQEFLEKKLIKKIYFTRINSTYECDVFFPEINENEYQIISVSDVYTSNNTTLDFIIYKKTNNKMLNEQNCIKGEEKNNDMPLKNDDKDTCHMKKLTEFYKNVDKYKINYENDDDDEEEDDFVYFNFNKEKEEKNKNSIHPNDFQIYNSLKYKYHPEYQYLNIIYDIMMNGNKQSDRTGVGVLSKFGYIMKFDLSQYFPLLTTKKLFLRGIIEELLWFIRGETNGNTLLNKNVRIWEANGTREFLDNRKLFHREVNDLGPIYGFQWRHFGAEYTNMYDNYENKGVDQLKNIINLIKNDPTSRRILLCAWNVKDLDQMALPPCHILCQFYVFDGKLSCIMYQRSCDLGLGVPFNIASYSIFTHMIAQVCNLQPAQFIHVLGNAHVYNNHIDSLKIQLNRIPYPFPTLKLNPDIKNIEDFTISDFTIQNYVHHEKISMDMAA
Chain of wild type (WT) pfDHFR (P13922 whole entry R59C/N108S): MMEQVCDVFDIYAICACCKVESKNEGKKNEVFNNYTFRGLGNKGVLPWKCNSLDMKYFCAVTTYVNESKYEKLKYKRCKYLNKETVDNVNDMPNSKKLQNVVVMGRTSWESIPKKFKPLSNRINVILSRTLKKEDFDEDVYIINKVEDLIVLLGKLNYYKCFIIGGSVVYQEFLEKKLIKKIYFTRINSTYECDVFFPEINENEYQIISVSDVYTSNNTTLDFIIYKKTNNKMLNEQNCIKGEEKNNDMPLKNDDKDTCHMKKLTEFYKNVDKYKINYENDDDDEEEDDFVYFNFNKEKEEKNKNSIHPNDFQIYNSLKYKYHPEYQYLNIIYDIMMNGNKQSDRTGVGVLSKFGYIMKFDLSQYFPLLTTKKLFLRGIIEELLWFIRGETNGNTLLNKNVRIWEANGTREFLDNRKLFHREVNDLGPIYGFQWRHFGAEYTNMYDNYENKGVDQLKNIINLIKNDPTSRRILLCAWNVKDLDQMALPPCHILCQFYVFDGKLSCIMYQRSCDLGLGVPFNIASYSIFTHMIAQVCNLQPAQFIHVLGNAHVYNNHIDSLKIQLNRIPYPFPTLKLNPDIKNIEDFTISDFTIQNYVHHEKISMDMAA

Which Ki (wild type (WT) pfDHFR) does the source give for `CCc1nc(N)nc(N)c1OCc1cn(-c2ccc([N+](=O)[O-])cc2)nn1` [Compound 17] here?
The Ki was 42.7 ± 0.99 nM.

What about the IC50 (in vitro) of the same compound?
The IC50 was over 50000 nM.

And the Ki [1]?
The Ki was 1990 ± 318 nM.

And the Ki [2]?
The Ki was over 500000 nM.

What about the IC50 [3, 5] of the same compound?
Its IC50 is 14900 ± 3820 nM.

And the IC50 [4, 6]?
The IC50 was 4250 ± 1370 nM.

Which Ki (wild type (WT) pfDHFR) does the source give for `CCc1nc(N)nc(N)c1OCc1cc(-c2ccccc2)no1` [Compound 33] here?
Its Ki is 0.51 ± 0.08 nM.

And the IC50 (in vitro)?
The IC50 was over 25000 nM.

And the Ki [1]?
The Ki was 38.1 ± 6.27 nM.

And the Ki [2]?
Its Ki is 1480 ± 68.9 nM.

And the IC50 [3, 5]?
Its IC50 is 15700 ± 4480 nM.

What about the IC50 [4, 6] of the same compound?
The IC50 was 670 ± 130 nM.

For `CCc1nc(N)nc(N)c1-c1cn(Cc2ccc(C(=O)O)cc2)nn1` [Compound 5], which Ki (wild type (WT) pfDHFR) is on record?
Its Ki is 6.31 ± 0.4 nM.

And the IC50 (in vitro)?
The IC50 was over 10000 nM.

What about the Ki [1] of the same compound?
Its Ki is 7.61 ± 0.66 nM.

And the Ki [2]?
Its Ki is 196 ± 20.7 nM.

And the IC50 [3, 5]?
The IC50 was over 10000 nM.

And the IC50 [4, 6]?
The IC50 was 7950 ± 1380 nM.

What does the source list for `CCc1nc(N)nc(N)c1OCCCc1cn(-c2ccc(C(=O)OC)cc2)nn1` [Compound 24]?
Ki (wild type (WT) pfDHFR): 0.15 ± 0.02 nM; IC50 (in vitro): > 2000 nM; Ki [1]: 1.9 ± 0.08 nM; Ki [2]: 19 ± 1.92 nM; IC50 [3]: > 2000 nM; IC50 [4]: 55 ± 6 nM

For `CCc1nc(N)nc(N)c1OCc1cn(-c2cccc(C(=O)OC)c2)nn1` [Compound 15], which Ki (wild type (WT) pfDHFR) is on record?
The Ki was 1.85 ± 0.36 nM.

And the IC50 (in vitro)?
Its IC50 is over 50000 nM.

What about the Ki [1] of the same compound?
The Ki was 208 ± 16.6 nM.

And the “Ki hDHFR” value [2]?
Its value is “High”.

And the IC50 [3, 5]?
The IC50 was 17600 ± 1500 nM.

What about the IC50 [4, 6] of the same compound?
The IC50 was 730 ± 230 nM.

For `CCc1nc(N)nc(N)c1OCCc1csc(-c2ccccc2)n1` [Compound 76], which Ki (wild type (WT) pfDHFR) is on record?
The Ki was 0.94 ± 0.16 nM.

And the IC50 (in vitro)?
Its IC50 is 1330 ± 460 nM.

And the Ki [1]?
The Ki was 7.28 ± 0.69 nM.

What about the Ki [2] of the same compound?
The Ki was 21 ± 1.24 nM.

And the IC50 [3, 5]?
The IC50 was 17800 ± 6800 nM.

And the IC50 [4, 6]?
Its IC50 is 11 ± 2 nM.

Which Ki (wild type (WT) pfDHFR) does the source give for `CCc1nc(N)nc(N)c1OCc1csc(-c2cccc([N+](=O)[O-])c2)n1` [Compound 62] here?
The Ki was 0.74 ± 0.07 nM.

What about the IC50 (in vitro) of the same compound?
The IC50 was 17900 ± 6230 nM.

And the Ki [1]?
The Ki was 53.2 ± 8.93 nM.

And the Ki [2]?
Its Ki is 134 ± 7.24 nM.

And the IC50 [3, 5]?
Its IC50 is 3980 ± 520 nM.

And the IC50 [4, 6]?
The IC50 was 460 ± 70 nM.

Which Ki (wild type (WT) pfDHFR) does the source give for `CCc1nc(N)nc(N)c1-c1cn(Cc2ccc(C(=O)OC)cc2)nn1` [Compound 4] here?
The Ki was 3.3 ± 0.36 nM.

And the IC50 (in vitro)?
The IC50 was over 25000 nM.

What about the Ki [1] of the same compound?
The Ki was 5.2 ± 0.62 nM.

And the Ki [2]?
The Ki was 555 ± 20.1 nM.

And the IC50 [3]?
Its IC50 is over 25000 nM.

And the IC50 [4]?
The IC50 was 5530 ± 840 nM.

What does the source list for `CCc1nc(N)nc(N)c1OCCc1cn(-c2cccc(C(=O)O)c2)nn1` [Compound 20]?
Ki (wild type (WT) pfDHFR): 0.39 ± 0.06 nM; IC50 (in vitro): > 25000 nM; Ki [1]: 1.73 ± 0.18 nM; Ki [2]: 80.2 ± 3.28 nM; IC50 [3, 5]: 1740 ± 510 nM; IC50 [4, 6]: 670 ± 340 nM

For `CCc1nc(N)nc(N)c1OCc1cc(-c2ccc(OC)cc2)no1` [Compound 42], which Ki (wild type (WT) pfDHFR) is on record?
The Ki was 1.15 ± 0.18 nM.

And the IC50 (in vitro)?
The IC50 was over 25000 nM.

What about the Ki [1] of the same compound?
The Ki was 64.4 ± 7.59 nM.

And the Ki [2]?
Its Ki is 1660 ± 76.7 nM.

And the IC50 [3, 5]?
The IC50 was over 25000 nM.

What about the IC50 [4, 6] of the same compound?
Its IC50 is 1190 ± 360 nM.

Which Ki (wild type (WT) pfDHFR) does the source give for `CCc1nc(N)nc(N)c1OCCCc1cn(-c2cccc(C(=O)O)c2)nn1` [Compound 23] here?
Its Ki is 0.25 ± 0.02 nM.

What about the IC50 (in vitro) of the same compound?
The IC50 was over 25000 nM.

What about the Ki [1] of the same compound?
Its Ki is 0.42 ± 0.06 nM.

And the Ki [2]?
Its Ki is 22.7 ± 2.76 nM.

And the IC50 [3, 5]?
The IC50 was 320 ± 120 nM.

What about the IC50 [4, 6] of the same compound?
Its IC50 is 6.4 ± 0.5 nM.

What does the source list for `CCc1nc(N)nc(N)c1OCc1coc(-c2cccc(OCC(=O)O)c2)n1` [Compound 54]?
Ki (wild type (WT) pfDHFR): 1.19 ± 0.15 nM; IC50 (in vitro): > 50000 nM; Ki [1]: 261 ± 19 nM; Ki [2]: 540 ± 25.2 nM; IC50 [3, 5]: > 50000 nM; IC50 [4, 6]: 3820 ± 210 nM

Which Ki (wild type (WT) pfDHFR) does the source give for `CCc1nc(N)nc(N)c1OCc1cn(Cc2ccc(O)cc2)nn1` [Compound 28] here?
The Ki was 53.7 ± 5.6 nM.

What about the IC50 (in vitro) of the same compound?
The IC50 was over 1000 nM.

What about the “Ki pfDHFR N51I + C59R + S108N + I164L (QM)” value ([1]; quadruple mutant pfDHFR, hydrochloride salts) of the same compound?
Its value is “High”.

What about the “Ki hDHFR” value [2] of the same compound?
The value was “High”.

And the IC50 [3, 5]?
The IC50 was over 1000 nM.

What about the IC50 [4, 6] of the same compound?
Its IC50 is over 1000 nM.

For `CCc1nc(N)nc(N)c1OCc1cn(Cc2cccc(C(=O)O)c2)nn1` [Compound 26], which Ki (wild type (WT) pfDHFR) is on record?
The Ki was 19.5 ± 1.06 nM.

What about the IC50 (in vitro) of the same compound?
Its IC50 is over 25000 nM.

And the Ki [1]?
The Ki was 388 ± 26.2 nM.

What about the “Ki hDHFR” value [2] of the same compound?
The value was “High”.

And the IC50 [3, 5]?
Its IC50 is over 25000 nM.

What about the IC50 [4, 6] of the same compound?
The IC50 was over 25000 nM.

What does the source list for `CCc1nc(N)nc(N)c1OCc1csc(-c2ccc(C(=O)OC)cc2)n1` [Compound 74]?
Ki (wild type (WT) pfDHFR): 0.65 ± 0.06 nM; IC50 (in vitro): > 50000 nM; Ki [1]: 34 ± 5.42 nM; Ki [2]: 447 ± 110 nM; IC50 [3]: 15900 ± 2110 nM; IC50 [4]: 400 ± 130 nM

What does the source list for `CCc1nc(N)nc(N)c1OCc1coc(-c2cccc(OCC(=O)OCc3ccccc3)c2)n1` [Compound 53]?
Ki (wild type (WT) pfDHFR): 0.83 ± 0.08 nM; IC50 (in vitro): > 10000 nM; Ki [1]: 45.5 ± 5.02 nM; Ki [2]: 681 ± 70.3 nM; IC50 [3, 5]: > 10000 nM; IC50 [4, 6]: 1760 ± 670 nM

Which results are given for `CCc1nc(N)nc(N)c1OCc1cc(-c2ccc(F)cc2)no1` [Compound 34]?
Ki (wild type (WT) pfDHFR): 1.01 ± 0.05 nM; IC50 (in vitro): > 25000 nM; Ki [1]: 77.6 ± 14.8 nM; Ki [2]: 1080 ± 93.7 nM; IC50 [3]: 18900 ± 4440 nM; IC50 [4]: 1600 ± 790 nM

With `CCc1nc(N)nc(N)c1OCc1csc(-c2cccc(OCC(=O)OCc3ccccc3)c2)n1` [Compound 63] as the compound, how does the Ki (wild type (WT) pfDHFR) read?
Its Ki is 0.75 ± 0.1 nM.

What about the IC50 (in vitro) of the same compound?
The IC50 was over 50000 nM.

And the Ki [1]?
Its Ki is 33.9 ± 1.85 nM.

What about the Ki [2] of the same compound?
The Ki was 118 ± 14.8 nM.

What about the IC50 [3, 5] of the same compound?
The IC50 was over 50000 nM.

What about the IC50 [4, 6] of the same compound?
The IC50 was 400 ± 70 nM.

What does the source list for `CCc1nc(N)nc(N)c1OCc1csc(-c2ccc(OC)cc2)n1` [Compound 68]?
Ki (wild type (WT) pfDHFR): 0.46 ± 0.06 nM; IC50 (in vitro): 43500 ± 13400 nM; Ki [1]: 16 ± 1.27 nM; Ki [2]: 186 ± 4.66 nM; IC50 [3]: 12900 ± 5710 nM; IC50 [4]: 450 ± 90 nM
